Experimental data reported in publication PMC8151276, “An Integrated Approach toward NanoBRET Tracers for Analysis of GPCR Ligand Engagement” (Molecules, 2021).

How the values were obtained:
Type in all cases: binding
CXCR1 = target: T1, CXCR1 (Homo sapiens, UniProt P25024); assay: NanoBRET screen HiBiT-CXCR1 in HEK293
T1 construct: purchased Promega (in-house HiBiT-GPCR construct library, NanoBRET)
T1 sequence (P25024 1-350): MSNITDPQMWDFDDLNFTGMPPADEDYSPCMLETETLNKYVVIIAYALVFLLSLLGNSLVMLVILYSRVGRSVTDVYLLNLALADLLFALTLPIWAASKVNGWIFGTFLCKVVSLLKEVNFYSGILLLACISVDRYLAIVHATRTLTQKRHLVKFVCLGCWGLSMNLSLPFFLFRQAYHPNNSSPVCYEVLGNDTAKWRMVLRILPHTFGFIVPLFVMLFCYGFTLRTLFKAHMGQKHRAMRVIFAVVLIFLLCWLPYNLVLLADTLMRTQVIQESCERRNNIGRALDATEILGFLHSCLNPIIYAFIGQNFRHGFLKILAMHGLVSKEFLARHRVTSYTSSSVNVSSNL
Experimental: (§1) Each tracer candidate was screened across the entire library of HiBiT-GPCR constructs using NanoBRET as the detection modality. As depicted in Figure 4A, the specificity of interactions was evaluated through decrease in BRET due to competitive displacement of a bound tracer by excess parental compound. Each tracer was analyzed for binding to each HiBiT-GPCR fusion in the absence and in the presence of competing parental compound. Briefly, HEK293 cells were transfected with HiBiT-GPCR constructs diluted into promoterless DNA to reduce expression and maximize translocation to the cell surface. Each tracer candidate was then screened at concentrations of 1 μM and 0.1 μM across cells expressing these fusions. Cells were treated for 1.5 h with tracer either alone or in the presence of 20 μM competing parental compound (i.e., control). BRET was measured upon addition of purified LgBiT and subsequent complementation with HiBiT genetically fused to a GPCR. The specificity of interactions was assessed through a decrease in BRET signal due to competitive displacement of the bound tracer. To further gauge the robustness of these interactions, the fold response over the control (i.e., BRETtracer/BRETcontrol) was calculated. We chose a 1.5-fold response, which translates to ≥7-fold signal over noise as the minimal threshold required to score an interaction as positive. […]. Below we highlight the screening results obtained for our exemplary fluorescent tracers based on Clozapine, Amitriptyline and AZD1283.
(§2) HiBiT-GPCR DNA constructs were diluted in 10 mM Tris pH 8 to a final concentration of 0.01 μg/μL, arrayed in 96-well plates and stored at −20 °C. For transfection, HEK293 cells were suspended in Opti-MEM (without phenol red) supplemented with 2% fetal bovine serum (Seradigm) and 100 units/mL penicillin–streptomycin (Gibco) at a final concentration of 220,000 cells/mL and dispensed into white 96-well plates at 90 μL/well. Subsequent transfections and screens were carried using an Agilent Bravo Automated Liquid Handling Platform. First, the 96-well HiBiT DNA arrays were diluted 25-fold in Opti-MEM (without serum or phenol red) to a final concentration of 0.0004 μg/μL and 20 μL of the diluted DNAs were transferred into new 96-well plates. Next, promoterless carrier DNA (1 μg/μL) was diluted 25-fold (0.04 μg/μL) and then dispensed into the diluted arrays at 20 μL/well. Following brief mixing, Viafect transfection reagent (Promega) diluted 16-fold into Opti-MEM was dispensed into the plates at 40 μL/well. After mixing by pipetting, plates were incubated for 10 min on the pipetting station deck. The DNA-transfection reagent complexes were then added to plates containing cells. To facilitate the screen, 10 μL of DNA-transfection reagent complexes were added in duplicates to the top 4 and bottom 4 rows, resulting in two identical 48-well arrays per plate. Plates with transfected cells were incubated for 18–20 h at 37 °C/5% CO2. A screen of each tracer across the entire library using two different concentrations requires duplicate plates of transfected cells. Depending on the number of tracers being screened, transfections can be scaled up using the same ratios. The next day, for each tracer, four 20× screening solutions in tracer dilution buffer (Promega) were prepared: two duplicates at final concentration of 20 μM and two duplicates at a final concentration of 2 μM. A competing unmodified compound was added to one of each duplicate at a final concentration of 400 μM. The four resulting solutions were diluted 4-fold in Opti-MEM without serum or phenol red to generate 5× solutions (5 µM and 0.5 µM tracer +/− 100 μM competing compound). To screen the library, a BioTek MultiFlo FX liquid dispenser was used to dispense 22.5 µL of tracer solution to the top 4 rows and 22.5 µL tracer + competing compound solution to the 4 bottom rows. Plates were briefly mixed on an orbital shaker and incubated for 1.5 h at room temperature. […]

PDGFRB = target: T2, PDGFRB (Homo sapiens, UniProt P09619); assay: NanoBRET screen HiBiT-PDGFRB in HEK293
T2 construct: purchased Promega (in-house HiBiT-GPCR construct library, NanoBRET)
T2 sequence (P09619 33-1106): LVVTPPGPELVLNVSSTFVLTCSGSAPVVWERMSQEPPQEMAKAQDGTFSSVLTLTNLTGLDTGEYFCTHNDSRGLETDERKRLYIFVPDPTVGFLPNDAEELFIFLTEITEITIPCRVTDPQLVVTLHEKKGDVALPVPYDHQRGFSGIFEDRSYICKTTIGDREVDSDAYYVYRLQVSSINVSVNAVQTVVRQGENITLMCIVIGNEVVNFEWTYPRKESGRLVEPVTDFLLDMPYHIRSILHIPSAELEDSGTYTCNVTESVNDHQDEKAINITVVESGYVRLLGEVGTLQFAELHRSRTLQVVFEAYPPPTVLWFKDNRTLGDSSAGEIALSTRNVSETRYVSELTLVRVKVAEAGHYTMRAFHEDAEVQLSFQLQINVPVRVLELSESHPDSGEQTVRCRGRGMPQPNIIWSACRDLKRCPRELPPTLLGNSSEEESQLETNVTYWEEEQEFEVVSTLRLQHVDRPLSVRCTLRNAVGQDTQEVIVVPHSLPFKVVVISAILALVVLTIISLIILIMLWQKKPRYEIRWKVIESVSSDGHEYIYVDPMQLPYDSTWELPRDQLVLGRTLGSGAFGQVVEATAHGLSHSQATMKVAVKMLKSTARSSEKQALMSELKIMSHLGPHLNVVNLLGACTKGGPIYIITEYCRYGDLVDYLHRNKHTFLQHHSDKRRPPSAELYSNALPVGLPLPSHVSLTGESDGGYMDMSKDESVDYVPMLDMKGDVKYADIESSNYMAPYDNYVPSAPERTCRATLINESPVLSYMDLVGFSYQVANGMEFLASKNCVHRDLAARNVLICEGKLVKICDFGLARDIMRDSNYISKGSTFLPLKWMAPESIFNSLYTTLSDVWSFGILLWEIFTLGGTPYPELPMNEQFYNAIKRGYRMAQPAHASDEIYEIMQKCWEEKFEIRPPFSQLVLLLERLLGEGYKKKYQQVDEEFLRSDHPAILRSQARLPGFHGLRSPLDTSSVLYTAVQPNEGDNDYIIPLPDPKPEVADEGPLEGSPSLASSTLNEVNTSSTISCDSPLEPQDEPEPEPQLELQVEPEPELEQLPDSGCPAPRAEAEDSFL
Experimental: as §1, §2

PTAFR = target: T3, PTAFR (Homo sapiens, UniProt P25105); assay: NanoBRET screen HiBiT-PTAFR in HEK293
T3 construct: purchased Promega (in-house HiBiT-GPCR construct library, NanoBRET)
T3 sequence (P25105 whole entry): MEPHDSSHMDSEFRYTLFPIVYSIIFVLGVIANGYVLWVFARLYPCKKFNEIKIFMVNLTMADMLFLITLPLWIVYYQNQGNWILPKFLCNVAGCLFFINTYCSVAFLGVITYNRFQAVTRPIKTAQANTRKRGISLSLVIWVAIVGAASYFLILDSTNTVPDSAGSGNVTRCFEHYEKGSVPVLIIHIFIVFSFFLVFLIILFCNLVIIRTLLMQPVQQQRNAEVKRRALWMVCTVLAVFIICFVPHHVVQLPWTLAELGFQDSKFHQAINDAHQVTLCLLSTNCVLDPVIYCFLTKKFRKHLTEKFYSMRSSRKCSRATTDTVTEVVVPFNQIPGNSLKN
Experimental: as §1, §2

F2RL3 = target: T4, F2RL3 (Homo sapiens, UniProt Q96RI0); assay: NanoBRET screen HiBiT-F2RL3 in HEK293
T4 construct: purchased Promega (in-house HiBiT-GPCR construct library, NanoBRET)
T4 sequence (Q96RI0 18-385): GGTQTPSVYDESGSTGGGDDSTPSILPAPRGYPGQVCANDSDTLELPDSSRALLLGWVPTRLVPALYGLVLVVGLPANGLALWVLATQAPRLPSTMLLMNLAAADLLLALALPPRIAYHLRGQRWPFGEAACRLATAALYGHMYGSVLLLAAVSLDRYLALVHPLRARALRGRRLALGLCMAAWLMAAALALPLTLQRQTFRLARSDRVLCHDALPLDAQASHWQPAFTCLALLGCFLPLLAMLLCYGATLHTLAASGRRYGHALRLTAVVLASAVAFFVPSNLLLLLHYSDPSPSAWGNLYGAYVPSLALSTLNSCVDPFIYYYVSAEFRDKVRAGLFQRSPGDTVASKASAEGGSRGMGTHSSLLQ
Experimental: as §1, §2

PTGER1 = target: T5, PTGER1 (Homo sapiens, UniProt P34995); assay: NanoBRET screen HiBiT-PTGER1 in HEK293
T5 construct: purchased Promega (in-house HiBiT-GPCR construct library, NanoBRET)
T5 sequence (P34995 1-402): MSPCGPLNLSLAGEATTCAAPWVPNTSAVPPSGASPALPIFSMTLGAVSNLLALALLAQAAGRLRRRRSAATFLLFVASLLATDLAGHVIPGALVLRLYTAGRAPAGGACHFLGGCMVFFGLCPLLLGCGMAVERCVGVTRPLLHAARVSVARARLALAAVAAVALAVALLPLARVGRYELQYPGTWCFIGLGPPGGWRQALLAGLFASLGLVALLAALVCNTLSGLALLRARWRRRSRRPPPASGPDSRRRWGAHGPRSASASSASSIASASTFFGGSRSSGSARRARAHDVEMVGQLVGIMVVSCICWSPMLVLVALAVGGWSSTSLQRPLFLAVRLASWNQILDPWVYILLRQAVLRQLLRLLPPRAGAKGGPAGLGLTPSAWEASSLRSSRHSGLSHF
Experimental: as §1, §2

NTSR1 = target: T6, NTSR1 (Homo sapiens, UniProt P30989); assay: NanoBRET screen HiBiT-NTSR1 in HEK293
T6 construct: purchased Promega (in-house HiBiT-GPCR construct library, NanoBRET)
T6 sequence (P30989 whole entry): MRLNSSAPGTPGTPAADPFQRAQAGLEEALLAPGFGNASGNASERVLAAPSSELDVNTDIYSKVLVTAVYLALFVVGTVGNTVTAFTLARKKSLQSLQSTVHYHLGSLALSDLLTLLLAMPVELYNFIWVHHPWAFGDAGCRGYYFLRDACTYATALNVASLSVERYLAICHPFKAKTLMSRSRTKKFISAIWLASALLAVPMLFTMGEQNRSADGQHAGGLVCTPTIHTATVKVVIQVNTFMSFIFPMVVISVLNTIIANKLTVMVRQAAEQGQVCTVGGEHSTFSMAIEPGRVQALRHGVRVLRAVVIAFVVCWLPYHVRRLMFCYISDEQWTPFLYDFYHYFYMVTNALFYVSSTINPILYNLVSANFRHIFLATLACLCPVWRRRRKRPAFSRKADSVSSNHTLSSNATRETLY
Experimental: as §1, §2

Row | NanoBRET Fold Response (F2RL3; 0.1μM tracer) | NanoBRET Fold Response (F2RL3; 1μM tracer) | NanoBRET Fold Response (PTGER1; 0.1μM tracer) | NanoBRET Fold Response (PTGER1; 1μM tracer) | NanoBRET Fold Response (CXCR1; 0.1μM tracer) | NanoBRET Fold Response (CXCR1; 1μM tracer) | NanoBRET Fold Response (PDGFRB; 0.1μM tracer) | NanoBRET Fold Response (PDGFRB; 1μM tracer) | NanoBRET Fold Response (NTSR1; 0.1μM tracer) | NanoBRET Fold Response (NTSR1; 1μM tracer) | NanoBRET Fold Response (PTAFR; 0.1μM tracer) | NanoBRET Fold Response (PTAFR; 1μM tracer) | Structure (SMILES) | other results
1 | – | – | – | – | – | – | – | – | – | – | – | – | CN(CCC=C1c2ccccc2CCc2ccccc21)C(=O)CCOCCOCCOCCOCCNC(=O)CCc1ccc2n1[B-](F)(F)[N+]1=C(c3ccc[nH]3)C=CC1=C2 [Amitriptyline-e-2-NB590] | NanoBRET Fold Response (CXCR1; tracer at 1μM): 0.93; NanoBRET Fold Response (PDGFRB; tracer at 1μM): 1.04; NanoBRET Fold Response (PTAFR; tracer at 1μM): 1.06
2 | 0.98 | 0.86 | 1.20 | 0.95 | 0.88 | 1.15 | 0.56 | 0.56 | 1.05 | 0.99 | 1.05 | 1.05 | COc1ccc2c(n1)c(CCNC(C)=O)cn2CCNC(=O)CCc1ccc2n1[B-](F)(F)[N+]1=C(c3ccc[nH]3)C=CC1=C2 [Azamelatonin-1-NB590] | –
3 | 1.05 | 1.04 | 0.77 | 0.95 | 1.06 | 0.96 | 0.80 | 1.04 | 0.90 | 0.78 | 1.01 | 0.99 | COc1ccc2[nH]c(-c3ccc(CNC(=O)CCOCCOCCOCCOCCNC(=O)CCc4ccc5n4[B-](F)(F)[N+]4=C(c6ccc[nH]6)C=CC4=C5)cc3)c(CCNC(C)=O)c2n1 [AzomelatoninICO9-2-NB590] | –
4 | – | – | – | – | – | – | – | – | – | – | – | – | O=C(CCOCCOCCOCCOCCNC(=O)CCc1ccc2n1[B-](F)(F)[N+]1=C(c3ccc[nH]3)C=CC1=C2)NCCCN1CCN(C2=Nc3cc(Cl)ccc3Nc3ccccc32)CC1 [Clozapine-a-2-NB590] | NanoBRET Fold Response (F2RL3; F2RL3, 0.1μM tracer): 1.02; NanoBRET Fold Response (F2RL3; F2RL3, 1μM tracer): 1.15; NanoBRET Fold Response (PTGER1; PTGER1, 0.1μM tracer): 1.03; NanoBRET Fold Response (PTGER1; PTGER1, 1μM tracer): 1.02; NanoBRET Fold Response (CXCR1; CXCR1, 0.1μM tracer): 0.99; NanoBRET Fold Response (CXCR1; CXCR1, 1μM tracer): 0.94; NanoBRET Fold Response (PDGFRB; PDGFRB, 0.1μM tracer): 1.09; NanoBRET Fold Response (PDGFRB; PDGFRB, 1μM tracer): 0.88; NanoBRET Fold Response (NTSR1; NTSR1, 0.1μM tracer): 0.97; NanoBRET Fold Response (NTSR1; NTSR1, 1μM tracer): 1.00; NanoBRET Fold Response (PTAFR; PTAFR, 0.1μM tracer): 1.01; NanoBRET Fold Response (PTAFR; PTAFR, 1μM tracer): 0.99
